Values quoted from earlier work, collected in US20100240621A1, “TOPICAL PHARMACEUTICAL COMPOSITION FOR THE COMBINATION OF FUSIDIC ACID AND A CORTICOSTEROID” (priority 2007, published 2010).

Experiments:
[1] = test system: oxacillin-resistant staphylococcus aureus; conditions: at a concentration of 2 mg/L
[2] = test system: oxacillin-sensitive staphylococcus aureus; conditions: at a concentration of 0.12 mg/L
[3] = test system: staphylococcus epidermidis; conditions: at 4 mg/L
[4] = test system: Peptococcus species
[5] = test system: Clostridium species
[6] = test system: Propionibacterium Danes
[7] = test system: most Bacteroides species
[8] = solution, cream, and ointment formulations
[9] = in vivo

applied dose entering the circulation [9] | SMILES | oxacillin-resistant staphylococcus aureus inhibited [1] | oxacillin-sensitive staphylococcus aureus inhibited [2] [%] | staphylococcus epidermidis inhibited [3] [%] | concentration at which 90% of organisms inhibited [4] [mg/L] | concentration at which 90% of organisms inhibited [5] [mg/L] | concentration at which 90% of organisms inhibited [6] [mg/L] | concentration at which 90% of organisms inhibited [7] [mg/L] | potency class by vasoconstrictor assay [8]
– | CC(=O)O[C@H]1C[C@@]2(C)[C@@H](C[C@@H](O)[C@H]3[C@@]4(C)CC[C@@H](O)[C@@H](C)[C@@H]4CC[C@@]32C)/C1=C(\CCC=C(C)C)C(=O)O [Fusidic acid] | At least 99% | 100 | 99 | ≤ 2 | ≤ 2 | ≤ 2 | ≤ 2 | –
less than 6% | CCC(=O)O[C@]1(C(=O)CCl)[C@@H](C)C[C@H]2[C@@H]3C[C@H](F)C4=CC(=O)C=C[C@]4(C)[C@@]3(F)[C@@H](O)C[C@@]21C [Halobetasol propionate] | – | – | – | – | – | – | – | super high-potency
